In ChEMBL document CHEMBL4387716, “Discovery of trans-3-(pyridin-3-yl)acrylamide-derived sulfamides as potent nicotinamide phosphoribosyltransferase (NAMPT) inhibitors for the potential treatment of cancer” (Bioorg Med Chem Lett, 2019):

Experiments:
MCF7 = test: Antiproliferative activity against human MCF7 cells assessed as inhibition of cell growth after 72 hrs by CCK-8 assay; type: functional, cell-based; settings: MCF7, 72 h
HeLa = test: Antiproliferative activity against human HeLa cells assessed as inhibition of cell growth after 72 hrs by CCK-8 assay; type: functional, cell-based
Huh-7 = test: Antiproliferative activity against human HuH7 cells assessed as inhibition of cell growth after 72 hrs by CCK-8 assay; type: functional, cell-based; settings: Huh-7, 72 h
NCI-H1975 = test: Antiproliferative activity against human NCI-H1975 cells harboring EGFR L858R/T790M mutation assessed as inhibition of cell growth after 72 hrs by CCK-8 assay; type: functional, cell-based; settings: NCI-H1975, 72 h
[1] = target: Nicotinamide phosphoribosyltransferase (Homo sapiens, UniProt P43490); test: Inhibition of recombinant NAMPT (unknown origin) using NAM and PRPP as substrates incubated for 60 mins in presence of NMNAT1 measured at 5 mins interval for 30 mins by WST1 assay
DU-145 = test: Antiproliferative activity against human DU145 cells assessed as inhibition of cell growth after 72 hrs by CCK-8 assay; type: functional, cell-based; settings: DU-145, 72 h
K562 = test: Antiproliferative activity against human K562 cells assessed as inhibition of cell growth after 72 hrs by CCK-8 assay; type: functional, cell-based; settings: K562, 72 h

Nicotinamide phosphoribosyltransferase, sequence (P43490 whole entry): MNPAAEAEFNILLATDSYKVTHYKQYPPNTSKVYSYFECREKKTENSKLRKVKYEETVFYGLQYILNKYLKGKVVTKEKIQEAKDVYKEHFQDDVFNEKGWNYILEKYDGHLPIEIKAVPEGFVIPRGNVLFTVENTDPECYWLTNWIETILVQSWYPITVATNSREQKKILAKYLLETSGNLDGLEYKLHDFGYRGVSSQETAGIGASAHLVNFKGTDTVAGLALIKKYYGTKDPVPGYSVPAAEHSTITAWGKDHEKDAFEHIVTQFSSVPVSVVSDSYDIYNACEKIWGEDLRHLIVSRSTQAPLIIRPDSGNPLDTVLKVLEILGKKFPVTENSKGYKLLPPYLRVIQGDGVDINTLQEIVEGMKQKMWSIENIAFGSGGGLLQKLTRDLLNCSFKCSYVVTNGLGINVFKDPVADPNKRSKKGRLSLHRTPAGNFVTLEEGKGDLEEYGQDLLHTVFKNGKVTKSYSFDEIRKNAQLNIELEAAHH

SMILES | IC50 (MCF7) | IC50 (HeLa) | IC50 (Huh-7) | IC50 (NCI-H1975) | IC50 [1] | IC50 (DU-145) | IC50 (K562)
O=C(/C=C/c1cccnc1)NCCCCCCc1ccc(S(=O)(=O)Nc2ccccc2)cc1 | 36 nM | 377 nM | 112 nM | 239 nM | 14.4 nM | 328 nM | 48.5 nM
O=C(/C=C/c1cccnc1)NCCCCCCc1cccc(S(=O)(=O)Nc2ccc(C(F)(F)F)cc2)c1 | 67.8 nM | 1450 nM | 164 nM | 175 nM | 24.5 nM | 1410 nM | 44.9 nM
O=C(/C=C/c1cccnc1)NCCCCc1ccc(S(=O)(=O)Nc2ccccc2)cc1 | 5.03 nM | 184 nM | 24.2 nM | 63.6 nM | 17.8 nM | 47.9 nM | 9.56 nM
O=C(/C=C/c1cccnc1)NCCCCCCCc1cccc(S(=O)(=O)Nc2ccccc2)c1 | 42.6 nM | 598 nM | 138 nM | 316 nM | 31.3 nM | 429 nM | 61.1 nM
O=C(/C=C/c1cccnc1)NCCCCCc1ccc(S(=O)(=O)Nc2ccccc2)cc1 | 95.7 nM | 333 nM | 408 nM | 778 nM | 28.4 nM | 581 nM | 146 nM
O=C(/C=C/c1cccnc1)NCCCCCCCc1ccc(S(=O)(=O)Nc2ccccc2)cc1 | 37.6 nM | 223 nM | 1220 nM | 330 nM | 16.4 nM | 438 nM | 56.5 nM
O=C(/C=C/c1cccnc1)NCCCc1cccc(S(=O)(=O)Nc2ccccc2)c1 | 142 nM | 115 nM | 384 nM | 261 nM | 235 nM | 165 nM | 86.8 nM
O=C(/C=C/c1cccnc1)NCCCc1ccc(S(=O)(=O)Nc2ccccc2)cc1 | 4120 nM | > 10000 nM | > 10000 nM | > 10000 nM | 5920 nM | > 10000 nM | 4900 nM
O=C(/C=C/c1cccnc1)NCCCCCc1cccc(S(=O)(=O)Nc2ccccc2)c1 | 12.5 nM | 105 nM | 41.1 nM | 146 nM | 16.5 nM | 140 nM | 16.2 nM
O=C(/C=C/c1cccnc1)NCCCCCCc1cccc(S(=O)(=O)Nc2ccc(F)c(Cl)c2)c1 | 6.3 nM | 385 nM | 39.4 nM | 25 nM | 9.7 nM | 150 nM | 5.31 nM
O=C(/C=C/c1cccnc1)NCCCCCCc1cccc(S(=O)(=O)Nc2ccc(Cl)cc2)c1 | 5.94 nM | 170 nM | 24.1 nM | 33.3 nM | 10.8 nM | 84.4 nM | 6.41 nM
CC(C)(C)c1ccc(NS(=O)(=O)c2cccc(CCCCCCNC(=O)/C=C/c3cccnc3)c2)cc1 | 26.3 nM | 1520 nM | 163 nM | 157 nM | 9.47 nM | 281 nM | 24.7 nM

Compounds with a lower IC50 (MCF7), results first:

IC50 (MCF7) | IC50 (HeLa) | IC50 (Huh-7) | IC50 (NCI-H1975) | IC50 [1] | IC50 (DU-145) | IC50 (K562) | SMILES
0.41 nM | 3.75 nM | 1.05 nM | 4.76 nM | – | 5.12 nM | 0.96 nM | O=C(/C=C/c1cccnc1)NCCCCC1CCN(C(=O)c2ccccc2)CC1 [DAPORINAD]
3.64 nM | 132 nM | 34.6 nM | 33.4 nM | 31.5 nM | 40.1 nM | 3.89 nM | CCc1ccc(NS(=O)(=O)c2cccc(CCCCCCNC(=O)/C=C/c3cccnc3)c2)cc1
1.97 nM | 38.8 nM | 6.92 nM | 17.1 nM | 9.78 nM | 34.4 nM | 2.98 nM | Cc1ccc(NS(=O)(=O)c2cccc(CCCCCCNC(=O)/C=C/c3cccnc3)c2)cc1
0.226 to 0.23 nM | 2.34 nM | 0.525 to 0.53 nM | 2.24 nM | 5.08 nM | 2.9 nM | 0.456 to 0.46 nM | Cc1ccccc1NS(=O)(=O)c1cccc(CCCCCCNC(=O)/C=C/c2cccnc2)c1
4 nM | 65.8 nM | 13.2 nM | 40.7 nM | 12.3 nM | 41.7 nM | 4.78 nM | Cc1cccc(NS(=O)(=O)c2cccc(CCCCCCNC(=O)/C=C/c3cccnc3)c2)c1
0.6 nM | 22.6 nM | 2.58 nM | 4.88 nM | 11.6 nM | 7.48 nM | 0.84 nM | Cc1ccc(C)c(NS(=O)(=O)c2cccc(CCCCCCNC(=O)/C=C/c3cccnc3)c2)c1
0.63 nM | 30.4 nM | 2.82 nM | 6.37 nM | 10.5 nM | 6.73 nM | 0.88 nM | O=C(/C=C/c1cccnc1)NCCCCCCc1cccc(S(=O)(=O)Nc2ccccc2)c1
3.84 nM | 262 nM | 32.7 nM | 25.6 nM | 13.1 nM | 50.9 nM | 5.12 nM | O=C(/C=C/c1cccnc1)NCCCCCCc1cccc(S(=O)(=O)Nc2ccc(Oc3ccccc3)cc2)c1
0.91 nM | 99.9 nM | 4.28 nM | 1.34 nM | 9.2 nM | 10.6 nM | 0.93 nM | O=C(/C=C/c1cccnc1)NCCCCCCc1cccc(S(=O)(=O)Nc2ccc(F)cc2)c1
